Experimental data: patent US12539292B2, “BRM targeting compounds and associated methods of use” (Arvinas Operations, Inc., priority 2018, dated 2026)
Where two headings read alike, the source gives them in different places.

Target: T1, BRM (Homo sapiens, UniProt P51531)
T1 construct: In-Cell Western Screen of BRM Degradation in SW1573 Cells; endogenous in cells; host or cells: SW1573
Assay: In-cell Western screen of BRM degradation in SW1573 cells (Dmax and DC50)
Format: cell-based
In short: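 SW1573, overnight cpd exposure (18-20 h), 0.1% DMSO final. PFA fix, 0.5% Triton permeabilization, block; IR secondaries at 800/680 nm. Odyssey read → Dmax, DC50.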

[1] = BRM degradation, SW1573 cells, read-out: DC50
[2] = BRM degradation, SW1573 cells, when tested at the top concentration of between 0.3 and 10 μM, read-out: Dmax (%) (% degraded)
[3] = BRM degradation, SW1573 cells, tested at the top concentration of between 0.3 and 10 μM, read-out: Dmax (%) (% degraded)
[4] = target protein degradation, read-out: BRM DC50
[5] = BRM degradation, SW1573 cells, Table 2D, read-out: *DC50

T1 sequence (P51531 whole entry): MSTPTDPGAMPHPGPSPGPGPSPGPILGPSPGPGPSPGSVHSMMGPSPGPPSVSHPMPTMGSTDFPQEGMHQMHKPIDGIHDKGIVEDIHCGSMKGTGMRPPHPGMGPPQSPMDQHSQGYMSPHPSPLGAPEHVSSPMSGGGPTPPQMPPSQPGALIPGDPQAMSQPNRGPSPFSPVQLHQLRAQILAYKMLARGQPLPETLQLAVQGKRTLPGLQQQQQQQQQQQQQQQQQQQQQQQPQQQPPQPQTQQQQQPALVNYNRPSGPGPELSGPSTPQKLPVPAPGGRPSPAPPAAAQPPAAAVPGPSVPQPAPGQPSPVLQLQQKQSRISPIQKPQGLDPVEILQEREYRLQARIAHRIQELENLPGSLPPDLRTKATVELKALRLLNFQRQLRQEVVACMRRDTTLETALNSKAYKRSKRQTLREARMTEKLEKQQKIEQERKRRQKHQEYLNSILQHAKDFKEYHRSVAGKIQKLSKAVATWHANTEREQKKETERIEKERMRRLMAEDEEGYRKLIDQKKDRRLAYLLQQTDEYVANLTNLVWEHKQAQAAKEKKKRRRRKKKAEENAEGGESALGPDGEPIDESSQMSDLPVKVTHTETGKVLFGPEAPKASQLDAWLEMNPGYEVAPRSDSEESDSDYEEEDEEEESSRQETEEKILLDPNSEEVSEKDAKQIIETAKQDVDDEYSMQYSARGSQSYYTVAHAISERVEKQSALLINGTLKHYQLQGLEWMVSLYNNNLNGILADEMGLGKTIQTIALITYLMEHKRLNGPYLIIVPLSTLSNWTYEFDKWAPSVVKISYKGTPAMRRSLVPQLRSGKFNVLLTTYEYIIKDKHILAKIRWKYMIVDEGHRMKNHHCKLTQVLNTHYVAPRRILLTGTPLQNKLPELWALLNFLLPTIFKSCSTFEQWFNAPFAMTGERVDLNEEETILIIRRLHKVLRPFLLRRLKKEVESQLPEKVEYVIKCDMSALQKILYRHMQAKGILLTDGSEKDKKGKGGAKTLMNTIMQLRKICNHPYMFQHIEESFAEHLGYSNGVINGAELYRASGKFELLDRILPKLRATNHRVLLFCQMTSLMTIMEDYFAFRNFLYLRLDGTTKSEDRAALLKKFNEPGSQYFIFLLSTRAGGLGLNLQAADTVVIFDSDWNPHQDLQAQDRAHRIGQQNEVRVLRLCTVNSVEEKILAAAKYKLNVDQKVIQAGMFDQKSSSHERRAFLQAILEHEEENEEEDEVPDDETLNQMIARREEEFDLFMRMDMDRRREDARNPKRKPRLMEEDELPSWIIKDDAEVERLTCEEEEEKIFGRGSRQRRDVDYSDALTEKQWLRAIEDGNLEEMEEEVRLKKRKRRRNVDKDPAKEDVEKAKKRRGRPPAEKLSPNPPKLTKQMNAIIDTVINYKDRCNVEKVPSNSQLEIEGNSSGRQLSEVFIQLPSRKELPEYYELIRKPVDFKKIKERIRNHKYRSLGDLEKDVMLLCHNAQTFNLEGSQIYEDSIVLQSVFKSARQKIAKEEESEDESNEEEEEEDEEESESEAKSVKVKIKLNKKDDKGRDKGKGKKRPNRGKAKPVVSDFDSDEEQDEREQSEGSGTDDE

| Compound | DC50 [1] [nM] | Dmax [3] [%] | also measured |
| --- | --- | --- | --- |
| Cc1ncsc1-c1ccc([C@H](C)NC(=O)[C@@H]2C[C@@H](O)CN2C(=O)[C@@H](c2onc(OCCN3CCN(CCOc4cc(N5C6CCC5CN(c5cc(-c7ccccc7O)nnc5N)C6)ccn4)CC3)c2Cl)C(C)C)cc1 [compound 55, (2S,4R)-1-((2R)-2-(3-(2-(4-(2-((4-(3-(3-amino-6-(2-hydroxyphenyl)pyridazin-4-yl)-3,8-diazabicyclo[3.2.1]octan-8-yl)pyridin-2-yl)oxy)ethyl)piperazin-1-yl)ethoxy)-4-chloroisoxazol-5-yl)-3-methylbutanoyl)-4-hydroxy-N-((S)-1-(4-(4-methylthiazol-5-yl)phenyl)ethyl)pyrrolidine-2-carboxamide] | < 2.5 |  | Dmax [2]: > 75% |
| CC(C)[C@H](C(=O)N1C[C@H](O)C[C@H]1C(=O)N[C@@H](C)c1ccc(-c2ccnn2C)cc1)c1cc(OCCN2CCN(CCOc3cc(N4C5CCC4CN(c4cc(-c6ccccc6O)nnc4N)C5)ccn3)CC2)no1 [compound 263, (2S,4R)-1-((2S)-2-(3-(2-(4-(2-((4-(3-(3-amino-6-(2-hydroxyphenyl)pyridazin-4-yl)-3,8-diazabicyclo[3.2.1]octan-8-yl)pyridin-2-yl)oxy)ethyl)piperazin-1-yl)ethoxy)isoxazol-5-yl)-3-methylbutanoyl)-4-hydroxy-N-((S)-1-(4-(1-methyl-1H-pyrazol-5-yl)phenyl)ethyl)pyrrolidine-2-carboxamide] | 2.5 to 10 | > 75 |  |
| Cc1ncoc1-c1ccc([C@H](C)NC(=O)[C@@H]2C[C@@H](O)CN2C(=O)[C@@H](c2cc(OCCN3CCN(CCOc4cc(N5C6CCC5CN(c5cc(-c7ccccc7O)nnc5N)C6)ccn4)CC3)no2)C(C)C)cc1 [compound 300, (2S,4R)-1-((2R)-2-(3-(2-(4-(2-((4-(3-(3-amino-6-(2-hydroxyphenyl)pyridazin-4-yl)-3,8-diazabicyclo[3.2.1]octan-8-yl)pyridin-2-yl)oxy)ethyl)piperazin-1-yl)ethoxy)isoxazol-5-yl)-3-methylbutanoyl)-4-hydroxy-N-((S)-1-(4-(4-methyloxazol-5-yl)phenyl)ethyl)pyrrolidine-2-carboxamide] | < 2.5 | > 75 |  |
| Cc1ncsc1-c1ccc([C@H](CN(C)C)NC(=O)[C@@H]2C[C@@H](O)CN2C(=O)[C@@H](c2cc(OCCN3CCN(CCOc4cc(N5C6CCC5CN(c5cc(-c7ccccc7O)nnc5N)C6)ccn4)CC3)no2)C(C)C)cc1 [compound 281, (2S,4R)-1-((2R)-2-(3-(2-(4-(2-((4-(3-(3-amino-6-(2-hydroxyphenyl)pyridazin-4-yl)-3,8-diazabicyclo[3.2.1]octan-8-yl)pyridin-2-yl)oxy)ethyl)piperazin-1-yl)ethoxy)isoxazol-5-yl)-3-methylbutanoyl)-N-((R)-2-(dimethylamino)-1-(4-(4-methylthiazol-5-yl)phenyl)ethyl)-4-hydroxypyrrolidine-2-carboxamide] | < 2.5 | > 75 |  |
| Cc1ncsc1-c1ccc([C@H](C)NC(=O)[C@@H]2C[C@@H](O)CN2C(=O)[C@H](c2cc(OCCCN3CCC(O[C@H]4C[C@H](Oc5cc(N6C7CCC6CN(c6cc(-c8ccccc8O)nnc6N)C7)ccn5)C4)CC3)no2)C(C)C)cc1 [compound 217, (2S,4R)-1-((2S)-2-(3-(3-(4-((1r,3S)-3-((4-(3-(3-amino-6-(2-hydroxyphenyl)pyridazin-4-yl)-3,8-diazabicyclo[3.2.1]octan-8-yl)pyridin-2-yl)oxy)cyclobutoxy)piperidin-1-yl)propoxy)isoxazol-5-yl)-3-methylbutanoyl)-4-hydroxy-N-((S)-1-(4-(4-methylthiazol-5-yl)phenyl)ethyl)pyrrolidine-2-carboxamide] | 2.5 to 10 | > 75 |  |
| Cc1ncsc1-c1ccc([C@H](C)NC(=O)[C@@H]2C[C@@H](O)CN2C(=O)[C@H](c2cc(OCC(F)(F)CN3CCC(O[C@H]4C[C@H](Oc5cc(N6C7CCC6CN(c6cc(-c8ccccc8O)nnc6N)C7)ccn5)C4)CC3)no2)C(C)C)cc1 [compound 483, (2S,4R)-1-((2S)-2-(3-(3-(4-((1r,3S)-3-((4-(3-(3-amino-6-(2-hydroxyphenyl)pyridazin-4-yl)-3,8-diazabicyclo[3.2.1]octan-8-yl)pyridin-2-yl)oxy)cyclobutoxy)piperidin-1-yl)-2,2-difluoropropoxy)isoxazol-5-yl)-3-methylbutanoyl)-4-hydroxy-N-((S)-1-(4-(4-methylthiazol-5-yl)phenyl)ethyl)pyrrolidine-2-carboxamide] |  |  | DC50 [4]: > 30 nM |
| CC(C)[C@@H](C(=O)N1C[C@H](O)C[C@H]1C(=O)N[C@@H](C)c1ccc(-n2ccnn2)cc1)c1cc(OCCN2CCN(CCOc3cc(N4C5CCC4CN(c4cc(-c6ccccc6O)nnc4N)C5)ccn3)CC2)no1 [compound 293, (2S,4R)-N-((S)-1-(4-(1H-1,2,3-triazol-1-yl)phenyl)ethyl)-1-((2R)-2-(3-(2-(4-(2-((4-(3-(3-amino-6-(2-hydroxyphenyl)pyridazin-4-yl)-3,8-diazabicyclo[3.2.1]octan-8-yl)pyridin-2-yl)oxy)ethyl)piperazin-1-yl)ethoxy)isoxazol-5-yl)-3-methylbutanoyl)-4-hydroxypyrrolidine-2-carboxamide] | 2.5 to 10 | > 75 |  |
| Cc1ncsc1-c1ccc([C@@H](C)NC(=O)[C@@H]2C[C@@H](O)CN2C(=O)[C@H](c2cc(OCCN3CCC(O[C@H]4C[C@H](Oc5cc(N6C7CCC6CN(c6cc(-c8ccccc8O)nnc6N)C7)ccn5)C4)CC3)no2)C(C)C)nn1 [compound 442, (2S,4R)-1-((2S)-2-(3-(2-(4-((1r,3S)-3-((4-(3-(3-amino-6-(2-hydroxyphenyl)pyridazin-4-yl)-3,8-diazabicyclo[3.2.1]octan-8-yl)pyridin-2-yl)oxy)cyclobutoxy)piperidin-1-yl)ethoxy)isoxazol-5-yl)-3-methylbutanoyl)-4-hydroxy-N-((R)-1-(6-(4-methylthiazol-5-yl)pyridazin-3-yl)ethyl)pyrrolidine-2-carboxamide] |  |  | DC50 (degradation of BRM, read-out: BRM DC50): > 30 nM |
| Cc1ncsc1-c1ccc([C@H](C)NC(=O)[C@@H]2C[C@@H](O)CN2C(=O)[C@@H](c2cc(OCCN3CCC(OC4CN(c5cc(N6C7CCC6CN(c6cc(-c8ccccc8O)nnc6N)C7)ccn5)C4)CC3)no2)C(C)C)cc1 [compound 355, (2S,4R)-1-((2R)-2-(3-(2-(4-((1-(4-(3-(3-amino-6-(2-hydroxyphenyl)pyridazin-4-yl)-3,8-diazabicyclo[3.2.1]octan-8-yl)pyridin-2-yl)azetidin-3-yl)oxy)piperidin-1-yl)ethoxy)isoxazol-5-yl)-3-methylbutanoyl)-4-hydroxy-N-((S)-1-(4-(4-methylthiazol-5-yl)phenyl)ethyl)pyrrolidine-2-carboxamide] |  |  | Dmax (SW1573, % degraded, when tested at the top concentration of between 0.3 and 10 μM, read-out: BRM Dmax (%)): > 75%; DC50 [4]: < 2.5 nM |
| Cc1nccn1-c1ccc([C@H](C)NC(=O)[C@@H]2C[C@@H](O)CN2C(=O)C(c2cc(N3CCC(CN4CCC(O[C@H]5C[C@H](Oc6cc(N7C8CCC7CN(c7cc(-c9ccccc9O)nnc7N)C8)ccn6)C5)CC4)CC3)no2)C(C)C)cc1 (stereo partly drawn) [compound 607, (2S,4R)-1-((2R)-2-(3-(4-((4-((1r,3r)-3-((4-(3-(3-amino-6-(2-hydroxyphenyl)pyridazin-4-yl)-3,8-diazabicyclo[3.2.1]octan-8-yl)pyridin-2-yl)oxy)cyclobutoxy)piperidin-1-yl)methyl)piperidin-1-yl)isoxazol-5-yl)-3-methylbutanoyl)-4-hydroxy-N-((S)-1-(4-(2-methyl-1H-imidazol-1-yl)phenyl)ethyl)pyrrolidine-2-carboxamide] |  |  | Dmax (BRM degradation, SW1573 cells, Table 2D, read-out: **Dmax (%) (% degraded)): > 75%; DC50 [5]: < 2.5 nM |
| Cc1nccn1-c1ccc([C@H](C)NC(=O)[C@@H]2C[C@@H](O)CN2C(=O)[C@@H](c2cc(OCCN3CCN(CCOc4cc(N5C6CCC5CN(c5cc(-c7ccccc7O)nnc5N)C6)ccn4)CC3)no2)C(C)C)cc1 [compound 76, (2S,4R)-1-((2R)-2-(3-(2-(4-(2-((4-(3-(3-amino-6-(2-hydroxyphenyl)pyridazin-4-yl)-3,8-diazabicyclo[3.2.1]octan-8-yl)pyridin-2-yl)oxy)ethyl)piperazin-1-yl)ethoxy)isoxazol-5-yl)-3-methylbutanoyl)-4-hydroxy-N-((S)-1-(4-(2-methyl-1H-imidazol-1-yl)phenyl)ethyl)pyrrolidine-2-carboxamide] | < 2.5 |  | Dmax [2]: > 75% |
| Cc1ncsc1-c1ccc([C@H](C)NC(=O)[C@@H]2C[C@@H](O)CN2C(=O)[C@H](c2cc(N3CCN(C[C@H]4C[C@H](Oc5cc(N6C7CCC6CN(c6cc(-c8ccccc8O)nnc6N)C7)ccn5)C4)CC3)no2)C(C)C)cc1 [compound 498, (2S,4R)-1-((2S)-2-(3-(4-(((1r,3S)-3-((4-(3-(3-amino-6-(2-hydroxyphenyl)pyridazin-4-yl)-3,8-diazabicyclo[3.2.1]octan-8-yl)pyridin-2-yl)oxy)cyclobutyl)methyl)piperazin-1-yl)isoxazol-5-yl)-3-methylbutanoyl)-4-hydroxy-N-((S)-1-(4-(4-methylthiazol-5-yl)phenyl)ethyl)pyrrolidine-2-carboxamide] |  |  | DC50 (BRM degradation, read-out: BRM DC50): > 30 nM |
| Cc1ncsc1-c1ccc([C@@H](NC(=O)[C@@H]2C[C@@H](O)CN2C(=O)[C@H](c2cc(N3CCC(CN4CCC(O[C@H]5C[C@H](Oc6cc(N7C8CCC7CN(c7cc(-c9ccccc9O)nnc7N)C8)ccn6)C5)CC4)CC3)no2)C(C)C)C(F)F)cc1 [compound 571, (2S,4R)-1-((2S)-2-(3-(4-((4-((1r,3r)-3-((4-(3-(3-amino-6-(2-hydroxyphenyl)pyridazin-4-yl)-3,8-diazabicyclo[3.2.1]octan-8-yl)pyridin-2-yl)oxy)cyclobutoxy)piperidin-1-yl)methyl)piperidin-1-yl)isoxazol-5-yl)-3-methylbutanoyl)-N-((R)-2,2-difluoro-1-(4-(4-methylthiazol-5-yl)phenyl)ethyl)-4-hydroxypyrrolidine-2-carboxamide] |  |  | DC50 [5]: > 30 nM |
